According to patent publication US10344002B2, “Compositions and methods for treating metabolic disorders” (NuSirt Sciences, Inc., priority 2016, dated 2019):

What was measured:
C2C12 muscle cells [1] = experiment: Fatty acid oxidation (oxygen consumption rate, Seahorse XF-24) in C2C12 muscle cells; assay type: cell-based; conditions: same system
Method: Cell Culture: C2C12 muscle cells were seeded with 40,000 cells per well on Seahorse tissue culture plates in Dulbecco's modified eagle's medium (DMEM) containing 10% fetal bovine serum (FBS) and antibiotics (1% penicillin-streptomycin) at 37° C. in 5% CO2. After reaching confluency (24 hours), cells were induced to differentiate with DMEM containing 2% Horse Serum for 3 to 4 days until myotubes were fully formed. Cells were then treated with indicated concentration of Compound 2 for 24 hours.
(§1) Compound 2 was dissolved in 100% DMSO to a stock concentration of 100 mM. This stock was further diluted to indicated concentrations in DMEM media.
Fatty acid oxidation: Baseline and palmitate-stimulated oxygen consumption rates were measured with XF-24 analyzer (Seahorse Bioscience (now part of Agilent Technologies), MA, USA). After 24 hour treatment with Compound 2 of differentiated C2C12 muscle cells, cells were washed twice with non-buffered carbonate-free pH 7.4 low glucose (2.5 mM) DMEM containing carnitine (0.5 mM), equilibrated with 600 μl of the same media in a non-CO2 incubator for 45 minutes, and then inserted into the instrument for 15 minutes of further equilibration, followed by O2 consumption measurement. Three successive baseline measures at five-minute intervals were taken prior to injection of palmitate (200 μM final concentration). Sets of three five-minute intervals followed by 10-minute time delay were continued over a 2 to 3 hour period after palmitate injection. The area under the curve of 02 consumption change from baseline for each sample was then calculated and used for subsequent analysis. Data are represented as mean±SD for each treatment group.

HepG2 liver cells [2] = conditions: same system, metformin alone; cited from earlier work
C2C12 muscle cells [3] = conditions: same system, metformin alone; cited from earlier work
HepG2 liver cells [4] = experiment: Lipid accumulation (Oil Red Staining) in HepG2 liver cells induced with high glucose plus insulin; assay type: cell-based; conditions: same system
Method: Cell Culture: HepG2 liver cells were seeded with 80,000 cells per well on 24-well tissue culture plates in low glucose (5 mM) DMEM containing 10% FBS and antibiotics. After 24 hours of attachment, lipid accumulation was induced by incubating cells with high glucose (25 mM) DMEM (10% FBS, 1% Pen-Strep) plus 100 nM insulin for 48 hours. Cells were then treated with indicated concentrations of Compound 2 for an additional 48 hours.
as §1
Lipid accumulation (Oil Red Staining): HepG2 liver cells were seeded and treated as described above. After 48 hours of treatment with Compound 2, lipid accumulation in HepG2 was measured via Oil Red Staining. Cells were washed with phosphate buffered saline (PBS) once, then cells were fixated with 10% formalin for 1 hour. After removal of the formalin, cells were washed with ddH2O twice, then washed with 60% isopropanol. Cells were dried completely. Cells were stained with Oil Red working solution (˜5 mM) for 25 minutes, then immediately washed with ddH2O four times, then dried completely again. Oil Red dye was eluted with 100% isopropanol and absorbance was read at 500 nm. Unstained cells plus isopropanol was used as a blank and subtracted from all readings. Data are represented as mean±SEM for each treatment group.

CN(C)C(=N)NC(=N)N [metformin, Metformin, reference compound]
fold higher concentration (in comparison with Compound 2) for fat oxidation (C2C12 muscle cells [1]): 100,000 fold | concentration below which hepatic lipids are not reduced (HepG2 liver cells [2]): ≥ 1 mM | concentration below which fat oxidation is not stimulated (C2C12 muscle cells [3]): ≥ 1 mM | fold higher concentration (in comparison with Compound 2) for reducing hepatic lipids (HepG2 liver cells [4]): 100,000 fold
